≈ marks a conversion by molar mass, not a printed value. Where “and” joins values, the source holds several entries; their conditions need not be identical. Equal values may be shown once. Read-outs that look alike come from different tables or passages of the source.
Tests used:
[1] = system: P. falciparum NF54 strain; assay: P. falciparum NF54 [3H]hypoxanthine incorporation assay, 72 h, 0.5% Albumax; assay type: cell-based
[2] = system: P. falciparum NF54 strain; assay: Serum shift assay, P. falciparum NF54 72 h in 50% human serum; details: for IC50: read-out: IC50 NF54 72 h, 50% Human Serum; for Serum Shift: 50% human serum versus 0.5% Albumax
[3] = system: P. falciparum NF54 strain; assay: P. falciparum NF54 24 h assay (species shift assay); assay type: cell-based
[4] = system: P. berghei (GFP ANKA malaria strain); assay: In vitro efficacy testing with P. berghei, 24 h (species shift assay); assay type: cell-based
[5] = system: P. falciparum NF54 strain; details: cited from earlier work
[6] = system: P. berghei GFP ANKA malaria strain; assay: Drug assay in vivo in P. berghei-infected mice; details: p.o. 4 × 50 mg/kg; for Parasitized RBC over 100: individual mice, 50 mg/kg; for Parasitized RBC over 100 / Parasitized RBC over 100, Avg. / % of Control / Activity (%): day 4; for % of Control: parasitemia; for Activity (%): reduction of parasitemia versus control
[7] = Thermodynamic aqueous solubility (shake-flask, PBS-10% DMSO); assay type: physicochemical; details: PBS with 10% DMSO, aqueous with cosolvent or surfactant or cyclodextrin, PBS pH 7.4, 10% DMSO, 20 °C, read-out: Thermodynamic aq. Solubility in PBS-10% DMSO
Description: Thermodynamic Aqueous Solubility: The shake-flask method enabled us to determine the apparent thermodynamic solubilities of the DMSO stock solutions of the compounds. […] The mixture was equilibrated at 20 °C for 24 h. After centrifugation, the supernatant was injected into an HPLC column coupled to an LC-MS apparatus (with UV–Vis detection) in order to determine the compound concentration. […] These solutions were also injected in order to calibrate the concentration determination process. […] Measurements were performed in duplicate.

[8] = Chromatographic Hydrophobicity Index (CHI) by HPLC; assay type: physicochemical; details: for CHI: Chromatographic Hydrophobicity Index, lipophilicity index; for chromatographic logD: pH 7.4, read-out: log D7.4
Description: Determination of CHI values: Compound lipophilicity influences permeability and propensity to nonspecific binding to plasma proteins. Although precise, the classical “shake flask” method is not always appropriate for the determination of high hydrophobicity, which can be alternatively measured using the Chromatographic Hydrophobicity Index method. This HPLC-based technique leads to rapid and cheap estimates of partition coefficients. […] A measure of 5 μL was injected onto the HPLC (with UV–Vis detection). […] The measurements were performed in duplicate. […] The CHI is approximately equal to the proportion of acetonitrile in the mobile phase when the compound is eluted from the column.

[9] = system: rat myoblast cell line (L6 cells); details: cited from earlier work
[10] = system: rat myoblast cell line (L6 cells); assay type: cell-based
From the text: Considering the potency of plasmodione and the observed main metabolite 6-hydroxy–plasmodione eliminated in the urine of PD-treated mice, our primary goal was to introduce a fluorine atom at C-6 of the menadione core to block the process of drug metabolism from occurring in the host’s liver. In this aim, we prioritized the preparation of a library of 6-fluoro-3-benzylmenadiones by investigating the replacement of the trifluoromethyl group by diverse EWG and EDG groups in various loci of the aryl ring. For SAR, all compounds were tested for the inhibition of parasite growth in RBCs infected with a P. falciparum chloroquine-sensitive strain, NF54. The parasites were cultured in vitro according to known conditions. […] The cytotoxicity of the active compounds was assessed against a rat myoblast cell line (L6 cells).
Cell proliferation was assessed with resazurin, and the generally cytotoxic agent podophyllotoxin served as the positive control, as previously reported by the STPH authors M. R. and P. M. in their recently published article.

[11] = Plasmodium falciparum, NF54, 72 h
[12] = Plasmodium falciparum, NF54, read-out: IC50 against P. falciparum NF54
[13] = Plasmodium falciparum, NF54, 72 h, P. falciparum NF54, 72 h, read-out: IC50
[14] = Plasmodium falciparum, NF54, 72 h, read-out: IC50 NF54 72 h, 0.5% Albumax, Table 5B, 0.5% Albumax
[15] = Plasmodium falciparum, NF54, 72 h, read-out: IC50 Pf NF54, 72 h, Table 5A, species shift experiment
[16] = Plasmodium falciparum, NF54, as stated in text, read-out: IC50 against P. falciparum NF54
[17] = Plasmodium falciparum, NF54, read-out: IC50 Pf NF54, 24 h assay
[18] = Plasmodium berghei, read-out: IC50 Pb, P. berghei, 24 h assay

CC1=C(Cc2ccc(OC(F)(F)F)cc2)C(=O)c2ccccc2C1=O [A-b-3]
IC50 [1, 11]: 83 nM
IC50 ([1]; Plasmodium falciparum, NF54, 72 h, read-out: IC50 NF54 72 h, 0.5% Albumax): 83 nM
IC50 ([1]; Plasmodium falciparum, NF54, 72 h, read-out: IC50 Pf NF54, 72 h): 83 nM
IC50 [1, 12]: < 100 nM
IC50 [2, 11]: 473 nM
IC50 ([3]; Plasmodium falciparum, NF54, 24 h, read-out: IC50 Pf NF54, 24 h): 223 nM
IC50 ([4]; Plasmodium berghei, 24 h, read-out: IC50 Pb, 24 h): 191 nM

CC1=C(Cc2ccc(F)cc2)C(=O)c2ccccc2C1=O [A-b-4]
IC50 ([5]; grey line ref 13): 29 nM
IC50 [1, 12]: < 100 nM

CC1=C(Cc2ccc(F)c(C(F)(F)F)c2)C(=O)c2ccccc2C1=O [A-b-9, 4′-fluoro-3′-trifluoromethyl-benzylmenadione]
Parasitized RBC over 100 [6]: 70.3 and 49.1 and 52.4
Avg. Mouse Survival [6]: 4.0 days
Parasitized RBC over 100, Avg. [6]: 57.27
% of Control [6]: 97.23%
Activity (%) [6]: 2.77%
IC50 [1, 13]: 77 nM
IC50 [1, 14]: 59 nM
IC50 [1, 15]: 62 nM
IC50 [1, 16]: < 100 nM
solubility thermodynamic at 24 h [7]: 0.67 ± 0.01 µM (≈ 0.233 µg/mL)
Serum Shift [2]: 6.1
IC50 [2, 11]: 355 nM
IC50 [3, 17]: 143 nM
IC50 [4, 18]: 149 nM

CC1=C(Cc2ccc(C#N)cc2)C(=O)c2ccccc2C1=O [A-b-10]
IC50 ([5]; grey line ref 8): 374 nM
IC50 [1, 16]: > 200 nM
solubility thermodynamic at 24 h [7]: 0.82 ± 0.01 µM (≈ 0.236 µg/mL)
CHI [8]: 97
chromatographic logD [8]: 3.75
Tox/L6 ([9]; grey line ref 8): 112.5 µM

CC1=C(Cc2ccc([N+](=O)[O-])cc2)C(=O)c2ccccc2C1=O [A-b-12]
IC50 ([5]; grey line ref 8): 201 nM
IC50 [1, 12]: > 200 nM

COc1ccc(CC2=C(C)C(=O)c3ccccc3C2=O)cc1 [A-b-16]
solubility thermodynamic at 24 h [7]: 1.07 ± 0.02 µM (≈ 0.313 µg/mL)
CHI [8]: 106
chromatographic logD [8]: 4.22

COc1ccc(CC2=C(C)C(=O)c3ccccc3C2=O)cc1OC [A-b-19]
IC50 ([5]; grey line ref 13): 142 nM
Tox/L6 ([9]; grey line ref 13): 5.6 µM

COc1ccc(OC)c(CC2=C(C)C(=O)c3ccccc3C2=O)c1 [A-b-26]
IC50 ([5]; grey line ref 9): 67 nM
solubility thermodynamic at 24 h [7]: 0.59 ± 0.01 µM (≈ 0.19 µg/mL)
CHI [8]: 107
chromatographic logD [8]: 4.26
Tox/L6 ([9]; grey line ref 9): 158.5 µM

CC1=C(Cc2ccco2)C(=O)c2ccccc2C1=O [A-b-43]
IC50 ([5]; grey line ref 8): 501 nM
Tox/L6 ([9]; grey line ref 8): 4.2 µM

C[C@H]1[C@H](OC(=O)CCC(=O)O)O[C@@H]2O[C@@]3(C)CC[C@H]4[C@H](C)CC[C@@H]1[C@@]24OO3 [AS, artesunate, reference compound]
IC50 [1, 15]: 4.8 nM
IC50 [2, 11]: 1 nM
IC50 [4, 18]: 13 nM

COc1cc(CC2=C(C)C(=O)c3ccc(F)cc3C2=O)cc(OC)c1 [B-a-35]
IC50 [1, 13]: 711 nM
Tox/L6 [10]: 293.0 µM

CC1=C(Cc2cccc(C(F)(F)F)c2)C(=O)c2ccccc2C1=O [B-b-1]
IC50 ([5]; grey line ref 9): 62 nM
IC50 [1, 16]: < 100 nM
Tox/L6 ([9]; grey line ref 9): 57.1 µM

CC1=C(Cc2ccccc2C(F)(F)F)C(=O)c2ccccc2C1=O [B-b-2]
IC50 ([5]; grey line ref 9): 26 nM
IC50 [1, 16]: < 100 nM
Tox/L6 ([9]; grey line ref 9): 249.8 µM

CC1=C(Cc2cccc(F)c2)C(=O)c2ccccc2C1=O [B-b-5]
IC50 [1, 13]: 89 nM
IC50 [1, 16]: < 100 nM
Tox/L6 [10]: 71.0 µM

CC1=C(Cc2ccc(I)cc2)C(=O)c2ccccc2C1=O [B-b-13]
IC50 ([5]; grey line ref 9): 115 nM
Tox/L6 ([9]; grey line ref 9): 138.6 µM

CC1=C(Cc2cccc(C#N)c2)C(=O)c2ccccc2C1=O [B-b-30]
IC50 [1, 13]: 190 nM
Tox/L6 [10]: 72.6 µM

CC1=C(Cc2ccccc2)C(=O)c2ccccc2C1=O [B-b-31]
IC50 ([5]; grey line ref 9): 1700 nM

CC1=C(Cc2ccc([N+](=O)[O-])c(F)c2)C(=O)c2ccccc2C1=O [B-b-32]
IC50 ([5]; grey line ref 9): 598 nM
Tox/L6 ([9]; grey line ref 9): 189.2 µM

COc1cc(CC2=C(C)C(=O)c3ccccc3C2=O)cc(OC)c1 [B-b-35]
IC50 ([5]; grey line ref 9): 52 nM
IC50 [1, 16]: < 100 nM
solubility thermodynamic at 24 h [7]: 0.75 ± 0.14 µM (≈ 0.242 µg/mL)
CHI [8]: 107
chromatographic logD [8]: 4.27
Tox/L6 ([9]; grey line ref 9): 70.3 µM

CC1=C(Cc2ccco2)C(=O)c2cc(F)ccc2C1=O [C-a-43]
IC50 [1, 13]: 947 nM
Tox/L6 [10]: 3.8 µM

CC1=C(Cc2ccc3scnc3c2)C(=O)c2ccccc2C1=O [C-b-40]
IC50 [1, 13]: 235 nM
Tox/L6 [10]: 50.29 µM

CC1=C(Cc2ccc3ncsc3c2)C(=O)c2ccccc2C1=O [C-b-41]
IC50 [1, 13]: 370 nM
Tox/L6 [10]: 49.81 µM

CC1=C(Cc2ccc(S(F)(F)(F)(F)F)cc2)C(=O)c2ccccc2C1=O [C-b-46, 4′-SF5-substituted 3-benzylmenadione]
IC50 [1, 13]: 48 nM
Tox/L6 [10]: 35.1 µM

CCN(CC)CCCC(C)Nc1ccnc2cc(Cl)ccc12 (stereo not drawn) [CQ, reference compound]
IC50 ([1]; read-out: IC50 NF54 72 h, 0.5% Albumax, Table 5B, 0.5% Albumax): 5 nM
IC50 ([1]; read-out: IC50 Pf NF54, 72 h, Table 5A, species shift experiment): 11 nM
IC50 [2]: 6.6 nM
IC50 ([3]; read-out: IC50 Pf NF54, 24 h, 24 h assay): 4.9 nM
IC50 ([4]; read-out: IC50 Pb, 24 h, P. berghei, 24 h assay): 16 nM

CC1=C(Cc2ccc(C(F)(F)F)cc2)C(=O)c2ccc(F)cc2C1=O [Cpnd 7-F-PD]
Parasitized RBC over 100 [6]: 64.7 and 69.0 and 62.2
Avg. Mouse Survival [6]: 4.0 days
Parasitized RBC over 100, Avg. [6]: 65.30
% of Control [6]: 110.87%
Activity (%) [6]: −10.87%
IC50 [1, 14]: 89 nM
IC50 [1, 15]: 93 nM
solubility thermodynamic at 24 h [7]: 0.59 ± 0.01 µM (≈ 0.205 µg/mL)
Serum Shift [2]: 4.2
IC50 [2, 11]: 377 nM
IC50 [3, 17]: 157 nM
IC50 [4, 18]: 138 nM

O=C1C(O)=C([C@H]2CC[C@H](c3ccc(Cl)cc3)CC2)C(=O)c2ccccc21 [atovaquone, reference compound]
solubility thermodynamic at 24 h [7]: 1.55 ± 0.04 µM (≈ 0.569 µg/mL)
